Consider 21 compounds from ChEMBL document CHEMBL5500355, “Quantum chemistry calculation-aided discovery of potent small-molecule mimics of glutathione peroxidases for the treatment of cisplatin-induced hearing loss” (Eur J Med Chem, 2024).

Data set [1] can be described thus: Glutathione peroxidase like activity of compound assessed as fold increase by measuring reduction in NADPH level at 10 uM by microplate reader assay relative to SPI-1005. In kind it is ADME.
Data set [2] can be described thus: Glutathione peroxidase like activity of compound assessed as fold increase by measuring reduction in NADPH level at 100 uM by microplate reader assay relative to SPI-1005. In kind it is ADME.
Data set [3] is filed under the species Mus musculus. Put plainly: Inhibition of cisplatin induced hair loss in neonatal C57BL/6 mouse cochlear explants assessed as reduction in cochlear hair cells loss in apex turns pretreated with compound for 2 hrs followed by cisplatin addition and measured after 24 hrs post cisplatin treatment. It is filed as functional. Conditions: Cochlea, time 26.0 hrs.
The species entered for data set [4] is Mus musculus. Put plainly: Inhibition of cisplatin induced hair loss in neonatal C57BL/6 mouse cochlear explants assessed as reduction in cochlear hair cells loss in base turns pretreated with compound for 2 hrs followed by cisplatin addition and measured after 24 hrs post cisplatin treatment. In kind it is functional. To be noted: Cochlea, time 26.0 hrs.
Data set [5] is described as follows: Solubility of compound in water by liquid chromatography method. It is filed as physicochemical.
The species named for data set [6] is Mus musculus. Put plainly: Inhibition of cisplatin induced hair loss in neonatal C57BL/6 mouse cochlear explants assessed as reduction in cochlear hair cells loss in middle turns pretreated with compound for 2 hrs followed by cisplatin addition and measured after 24 hrs post cisplatin treatment. Conditions: Cochlea, time 26.0 hrs. In kind it is functional.
Data set [7] relates to Mus musculus. Kind of data set: Prevention of cisplatin induced hair loss in C57BL/6 mouse at 80 mg/kg, po administered daily for one week with simultaneous cisplatin addition on day 3 and 7 and measured after 1 week post last cisplatin treatment by myosin 7a-staining based assay. It is filed as functional, organism-based. To be noted: time 2.0 weeks.
Data set [8] deals with Mus musculus. Kind of data set: Protection against cisplatin induced oxidative stress in C57BL/6 mouse assessed as reduction in MDA level at 80 mg/kg, po administered daily for one week with simultaneous cisplatin addition on day 3 and 7 and measured after 1 week post last cisplatin treatment by ELISA. In kind it is functional, organism-based. Conditions: time 2.0 weeks. On the technique in general: An ELISA detects its analyte on a solid surface through an enzyme-linked reagent.

The test system of data set [9] is Mus musculus. Kind of data set: Protection against cisplatin induced oxidative stress in C57BL/6 mouse assessed as reduction in TNF-alpha level at 80 mg/kg, po administered daily for one week with simultaneous cisplatin addition on day 3 and 7 and measured after 1 week post last cisplatin treatment by ELISA. In kind it is functional, organism-based. To be noted: time 2.0 weeks.

Data set [10] relates to Mus musculus. Put plainly: Protection against cisplatin induced oxidative stress in C57BL/6 mouse assessed as reduction in IL-6 level at 80 mg/kg, po administered daily for one week with simultaneous cisplatin addition on day 3 and 7 and measured after 1 week post last cisplatin treatment by ELISA. It is filed as functional, organism-based. Conditions: time 2.0 weeks.
In data set [11] the test system is Mus musculus. Put plainly: Protection against cisplatin induced oxidative stress in C57BL/6 mouse assessed as increase in SOD level at 80 mg/kg, po administered daily for one week with simultaneous cisplatin addition on day 3 and 7 and measured after 1 week post last cisplatin treatment by ELISA. In kind it is functional, organism-based. Conditions: time 2.0 weeks.

For data set [12], the species on record is Mus musculus. Put plainly: Inhibition of cisplatin induced ferroptosis in neonatal C57BL/6 mouse cochlear explants assessed as reduction in mitochondrial iron accumulation at 100 uM by Mito-FerroGreen staining based confocal microscopy analysis. It is filed as functional, organism-based. To be noted: Cochlea.
The subject of data set [13] is Mus musculus. Put plainly: Prevention of cisplatin induced hearing loss in C57BL/6 mouse assessed as reduction in ABR threshold increase at 80 mg/kg, po administered daily for one week with simultaneous cisplatin addition on day 3 and 7 and measured after 1 week post last cisplatin treatment. It is filed as functional, organism-based. Conditions: time 2.0 weeks.
The species entered for data set [14] is Mus musculus. Kind of data set: Inhibition of cisplatin induced oxidative stress in neonatal C57BL/6 mouse cochlear explants at 100 uM by MitoSOX Red staining based confocal fluorescence microscope analysis. In kind it is functional, organism-based. Conditions: Cochlea.
A further data set concerns Tu 686. Put plainly: Effect on cisplatin induced antitumor activity in human Tu 686 cells by CCK8 assay. It is filed as functional, cell-based. (Tetrazolium assays rely on reduction of a dye to a coloured formazan, in cell work by metabolically active cells.)
The species named for data set [15] is Mus musculus. Kind of data set: Inhibition of cisplatin induced apoptosis in neonatal C57BL/6 mouse cochlear explants assessed as reduction in cleaved caspase 3 positive hair cells in apex turn of cochlea at 100 uM by parvalbumin staining based assay. In kind it is functional.
Another data set has as its system 6-10B. Kind of data set: Effect on cisplatin induced antitumor activity in human 6-10B cells by CCK8 assay. It is filed as functional, cell-based.
For data set [16], the species on record is Mus musculus. Kind of data set: Inhibition of cisplatin induced apoptosis in neonatal C57BL/6 mouse cochlear explants assessed as reduction in cleaved caspase 3 positive hair cells in basal turn of cochlea at 100 uM by parvalbumin staining based assay. In kind it is functional.
The species named for data set [17] is Mus musculus. Kind of data set: Inhibition of cisplatin induced apoptosis in neonatal C57BL/6 mouse cochlear explants assessed as reduction in cleaved caspase 3 positive hair cells in middle turn of cochlea at 100 uM by parvalbumin staining based assay. It is filed as functional.
Another data set concerns HeLa. Kind of data set: Effect on cisplatin induced antitumor activity in human HeLa cells by CCK8 assay. It is filed as functional, cell-based.

Converted amounts (≈) assume the structure as drawn. The source made the active and inactive calls.

Take `COc1ccc2[se]n(-c3ccccc3)c(=O)c2c1`: the “fold change (FC)” value is reported as 0.5 in data set [1] and 0.8 in data set [2].

Consider `COc1cccc2c(=O)n(-c3ccccc3)[se]c12`, for which the inhibition entry in the data set filed under Mus musculus [3], in the data set listed under Mus musculus [4] and in the data set listed under Mus musculus [6] was “Active” in each case. For the same compound, the “fold change (FC)” value in data set [1] was found to be 7.4; in data set [2], 4.2. The compound also had a solubility in data set [5] of 2.5 µg/mL (≈ 8.22 µM).

As for `O=c1c2cccc(Br)c2[se]n1-c1ccccc1`, the inhibition entry in the data set listed under Mus musculus [3], in the data set filed under Mus musculus [4] and in the data set filed under Mus musculus [6] was “Active” in each case. Moreover, the entries for the “fold change (FC)” value in data set [1] and in data set [2] were 8.8 and 3.5, respectively.

Take `COc1cccc2c(=O)n(-c3ccncc3)[se]c12`: the figures for the “fold change (FC)” value in [1] and in data set [2] were 7.4 and 3, respectively.

For the compound `COc1cccc2c(=O)n(-c3ccccn3)[se]c12`, the “fold change (FC)” value was found to be 6.9 in data set [1] and 3.8 in [2].

In the case of `COc1ccccc1-n1[se]c2ccccc2c1=O`, the “fold change (FC)” value in data set [1] worked out at 0.9; in data set [2] it was 1.1.

Consider `COc1ccc(-n2[se]c3ccccc3c2=O)cc1`, for which the “fold change (FC)” value in [1] is 1.3; in data set [2] it was 1.1.

For `O=c1c2cccc(Cl)c2[se]n1-c1ccccc1`, the results for the “fold change (FC)” value in data set [1] and in data set [2] were 8.6 and 3.5, respectively.

`COc1ccc2c(=O)n(-c3ccccc3)[se]c2c1`: the “fold change (FC)” value is 0.2 in data set [1] and 0.5 in [2].

With `O=c1c2ccccc2[se]n1-c1ccccc1`, the inhibition entry in the data set filed under Mus musculus [3], in the data set filed under Mus musculus [4], in the data set listed under Mus musculus [6] and in the data set listed under Mus musculus [12] was “Active” each time. Also, the result in the data set with Mus musculus [7], in the data set on Mus musculus [8], in the data set on Mus musculus [9], in the data set on Mus musculus [10], in the data set on Mus musculus [11] and in the data set on Mus musculus [13] was Active.

For `O=c1c2cc(Br)ccc2[se]n1-c1ccccc1`, the “fold change (FC)” value in data set [1] was 0.5; in data set [2] it was 1.1.

For `O=c1c2cccc(Br)c2[se]n1-c1cccnc1`, the inhibition entry in the data set listed under Mus musculus [3], in the data set filed under Mus musculus [4] and in the data set listed under Mus musculus [6] was “Active” each time. For the same compound, the results for the “fold change (FC)” value in data set [1] and in [2] were 9.8 and 3.5, respectively.

`O=c1c2cccc(Br)c2[se]n1-c1ccncc1`: the results for the “fold change (FC)” value in [1] and in data set [2] were 7.7 and 3.4, respectively.

`COc1cccc(-n2[se]c3ccccc3c2=O)c1`: the “fold change (FC)” value in data set [1] is given as 0.7; in data set [2], 1.

In the case of `O=c1c2cccc([N+](=O)[O-])c2[se]n1-c1ccccc1`, the “fold change (FC)” value in [1] amounted to 7.2; in data set [2], 3.3.

With `O=c1c2cccc(Br)c2[se]n1-c1ccccn1`, the entries for the “fold change (FC)” value in data set [1] and in data set [2] were 9.1 and 4.7, respectively.

Consider `O=c1c2cccc(F)c2[se]n1-c1ccccc1`, for which the entries for the “fold change (FC)” value in data set [1] and in data set [2] were 4.5 and 2.5, respectively.

With `O=c1c2ccc(Br)cc2[se]n1-c1ccccc1`, the entries for the “fold change (FC)” value in [1] and in [2] were 0.7 and 0.6, respectively.

`COc1cccc2[se]n(-c3ccccc3)c(=O)c12`: the “fold change (FC)” value in data set [1] is on record as 1.8; in data set [2], 1.2.

Turning to `Cc1cccc2c(=O)n(-c3ccccc3)[se]c12`, the “fold change (FC)” value is recorded as 4.6 in data set [1] and 2.5 in [2].

Regarding `COc1cccc2c(=O)n(-c3cccnc3)[se]c12`, the inhibition entry in the data set listed under Mus musculus [14], in the data set filed under Mus musculus [3], in the data set listed under Mus musculus [15], in the data set filed under Mus musculus [4], in the data set listed under Mus musculus [16] and in the data set filed under Mus musculus [17] was “Active” throughout. Further, the inhibition result in the data set listed under Mus musculus [6] and in the data set filed under Mus musculus [12] was “Active” in each case. Further, the results for the “fold change (FC)” value in data set [1] and in data set [2] were 7.7 and 3.5, respectively. In addition, the result in the data set with Mus musculus [7], with Mus musculus [8], with Mus musculus [9], with Mus musculus [10], in the data set on Mus musculus [11] and in the data set on Mus musculus [13] was Active. Besides, the outcome with Tu 686, with 6-10B and with HeLa was inactive. In data set [5], the solubility turned out to be 1800 µg/mL (≈ 5900 µM).

For orientation: solubility means the concentration that dissolves in the medium under given conditions. The low end stands for little dissolved substance, the high end for much dissolved substance.
